Test results: ChEMBL document CHEMBL5113392, “Novel hybrid pyrrolidinedione-thiazolidinones as potential anticancer agents: Synthesis and biological evaluation” (Eur J Med Chem, 2022)
The source made the active and inactive calls. No cut-off for these calls is given here.

Tests used:
[1] = system: Jurkat; assay: Induction of DNA damage in human Jurkat cells assessed as proapoptotic inter-nucleosomal fragmentation at 3.5 uM for 24 hrs by Agarose gel electrophoresis analysis; assay type: functional, cell-based
[2] = system: Jurkat; assay: Induction of apoptosis in human Jurkat cells assessed as decrease in Bcl-2 level at 3.5 uM for 24 hrs by Western blot analysis; assay type: functional, cell-based
[3] = system: NCI-H522; assay: Anticancer activity against human NCI-H522 cells assessed as inhibition of cell growth at 10 uM incubated for 48 hrs by SRB assay; assay type: functional; settings: NCI-H522, 48 h, values are per cent of control
[4] = Selectivity index, ratio of GI50 for human HaCaT cells to GI50 for human U-251 cells; assay type: toxicity; settings: HaCaT cells versus U-251 cells, read-out: RatioGI50
[5] = system: OVCAR-3; assay: Anticancer activity against human OVCAR-3 cells assessed as inhibition of cell growth at 10 uM incubated for 48 hrs by SRB assay; assay type: functional; settings: OVCAR-3, 48 h, values are per cent of control
[6] = system: Lymphocyte; assay: Induction of DNA damage in mitogen activated human peripheral blood lymphocytes assessed as tail DNA at 3.5 uM incubated for 24 hrs by alkaline Comet assay; assay type: toxicity, cell-based
[7] = system: Jurkat; assay: Induction of apoptosis in human Jurkat cells assessed as increase in Bax level at 3.5 uM for 24 hrs by Western blot analysis; assay type: functional, cell-based
[8] = system: Jurkat; assay: Induction of DNA damage in human Jurkat cells assessed as olive tail moment at 3.5 uM incubated for 24 hrs by alkaline Comet assay; assay type: functional
[9] = system: Lymphocyte; assay: Induction of DNA damage in mitogen activated human peripheral blood lymphocytes assessed as olive tail moment at 3.5 uM incubated for 24 hrs by alkaline Comet assay; assay type: toxicity, cell-based
[10] = system: Jurkat; assay: Induction of apoptosis in human Jurkat cells assessed as increase in cleaved capase-3 level at 3.5 uM for 24 hrs by Western blot analysis; assay type: functional, cell-based
[11] = system: NCI-H226; assay: Anticancer activity against human NCI-H226 cells assessed as total growth inhibition incubated for 48 hrs by SRB assay; assay type: functional
[12] = system: NCI-H460; assay: Anticancer activity against human NCI-H460 cells assessed as total growth inhibition incubated for 48 hrs by SRB assay; assay type: functional
[13] = system: Jurkat; assay: Induction of DNA damage in human Jurkat cells assessed as tail DNA at 3.5 uM incubated for 24 hrs by alkaline Comet assay; assay type: functional
[14] = system: Jurkat; assay: Induction of apoptosis in human Jurkat cells assessed as increase in cleaved capase-3 level at 1.5 uM for 24 hrs by Western blot analysis; assay type: functional, cell-based
[15] = system: OVCAR-5; assay: Anticancer activity against human OVCAR-5 cells assessed as lethality incubated for 48 hrs by SRB assay; assay type: functional; settings: read-out: LC50 (the source's name)
[16] = system: Lymphocyte; assay: Induction of DNA damage in mitogen activated human peripheral blood lymphocytes assessed as tail DNA at 1.5 uM incubated for 24 hrs by alkaline Comet assay; assay type: toxicity, cell-based
[17] = system: Jurkat; assay: Induction of DNA damage in human Jurkat cells assessed as proapoptotic inter-nucleosomal fragmentation at 1.5 uM for 24 hrs by Agarose gel electrophoresis analysis; assay type: functional, cell-based
[18] = system: ACHN; assay: Anticancer activity against human ACHN cells assessed as lethality incubated for 48 hrs by SRB assay; assay type: functional; settings: read-out: LC50 (the source's name)
[19] = system: Lymphocyte; assay: Induction of DNA damage in mitogen activated human peripheral blood lymphocytes assessed as olive tail moment at 1.5 uM incubated for 24 hrs by alkaline Comet assay; assay type: toxicity, cell-based
[20] = system: DU-145; assay: Anticancer activity against human DU-145 cells assessed as total growth inhibition incubated for 48 hrs by SRB assay; assay type: functional
[21] = system: SK-MEL-5; assay: Anticancer activity against human SK-MEL-5 cells assessed as total growth inhibition incubated for 48 hrs by SRB assay; assay type: functional
[22] = system: HCT-116; assay: Induction of DNA damage in human HCT-116 […] assessed as tail DNA at 1 uM incubated for 2 hrs in dark by Comet assay; assay type: functional
[23] = system: CAKI-1; assay: Anticancer activity against human CAKI-1 cells assessed as inhibition of cell growth at 10 uM incubated for 48 hrs by SRB assay; assay type: functional; settings: CAKI-1, 48 h, values are per cent of control
[24] = system: HCT-116; assay: Induction of DNA damage in human HCT-116 cells assessed as tail DNA at 1 uM incubated for 2 hrs by alkaline Comet assay; assay type: functional
[25] = system: Jurkat; assay: Induction of DNA damage in human Jurkat cells assessed as olive tail moment at 1.5 uM incubated for 24 hrs by alkaline Comet assay; assay type: functional
[26] = system: Jurkat; assay: Induction of apoptosis in human Jurkat cells assessed as increase in Bax level at 1.5 uM for 24 hrs by Western blot analysis; assay type: functional, cell-based
[27] = system: Jurkat; assay: Induction of apoptosis in human Jurkat cells assessed as decrease in Bcl-2 level at 1.5 uM for 24 hrs by Western blot analysis; assay type: functional, cell-based
[28] = system: KM12; assay: Anticancer activity against human KM12 cells assessed as inhibition of cell growth at 10 uM incubated for 48 hrs by SRB assay; assay type: functional; settings: KM12, 48 h, values are per cent of control
[29] = system: Salmon testes DNA; assay: Binding affinity to double stranded salmon sperm DNA assessed as increase in DNA oxidation level by measuring net change in absorbance at 10 uM incubated for 1 hr by UV based spectroscopic method; assay type: nucleic-acid assay; settings: Salmo salar
[30] = system: HCT-116; assay: Induction of DNA damage in human HCT-116 cells assessed as olive tail moment at 1 uM incubated for 2 hrs by alkaline Comet assay; assay type: functional
[31] = system: HCT-116; assay: Induction of DNA damage in human HCT-116 cell lysate assessed as olive tail moment at 1 uM incubated for 2 hrs in dark by Comet assay; assay type: functional
[32] = system: SK-MEL-5; assay: Anticancer activity against human SK-MEL-5 cells assessed as lethality incubated for 48 hrs by SRB assay; assay type: functional; settings: read-out: LC50 (the source's name)
[33] = system: Jurkat; assay: Induction of DNA damage in human Jurkat cells assessed as tail DNA at 1.5 uM incubated for 24 hrs by alkaline Comet assay; assay type: functional
[34] = system: A549; assay: Anticancer activity against human A549 cells assessed as growth inhibition incubated for 48 hrs by SRB assay; assay type: functional
[35] = system: KM12; assay: Anticancer activity against human KM12 cells assessed as total growth inhibition incubated for 48 hrs by SRB assay; assay type: functional
[36] = system: 786-0; assay: Anticancer activity against human 786-0 cells assessed as lethality incubated for 48 hrs by SRB assay; assay type: functional; settings: read-out: LC50 (the source's name)
[37] = system: Salmon testes DNA; assay: Binding affinity to single stranded salmon sperm DNA assessed as increase in DNA oxidation level by measuring net change in absorbance at 10 uM incubated for 1 hr by UV based spectroscopic method; assay type: nucleic-acid assay; settings: Salmo salar

SMILES: O=C1CC(N2C(=O)/C(=C/C(Cl)=C/c3ccc([N+](=O)[O-])cc3)SC2=S)C(=O)N1c1ccc(Cl)cc1 (stereo not given)
- Activity [1]: Active
- Activity [2]: Active
- growth, % of control at 10 µM [3]: -26.4%
- selectivity ratio [4]: 11.2
- growth, % of control at 10 µM [5]: -35.4%
- Activity [6]: 4.25%
- Activity [7]: Active
- Activity [8]: 18.1%
- Activity [9]: 0.86%
- Activity [10]: Active
- TGI [11]: 4.65 µM
- TGI [12]: > 100 µM
- Activity [13]: 48.35%

SMILES: O=C1CC(N2C(=O)/C(=C/C(Cl)=C/c3ccc([N+](=O)[O-])cc3)SC2=S)C(=O)N1c1ccc(O)cc1 (stereo not given)
- Activity [14]: Active
- CC50 [15]: 7.16 µM
- selectivity ratio [4]: 66.9
- Activity [16]: 2.92%
- Activity [17]: Active
- CC50 [18]: 5.59 µM
- Activity [19]: 0.28%
- TGI [20]: 3.37 µM
- TGI [21]: 3.66 µM
- Activity [22]: 13.1%
- growth, % of control at 10 µM [23]: -71.4%
- Activity [24]: 26.5%
- Activity [25]: 8.63%
- Activity [26]: Active
- Activity [27]: Active
- growth, % of control at 10 µM [28]: -72.4%
- Activity [29]: Active
- TGI [11]: 6.82 µM
- Activity [30]: 9.84%
- TGI [12]: 6.75 µM
- Activity [31]: 3.05%
- CC50 [32]: 6.97 µM
- Activity [33]: 53.4%
- GI50 [34]: 3.11 µM
- TGI [35]: 4.64 µM
- CC50 [36]: 25.5 µM
- Activity [37]: Active
